What was measured:
Staphylococcus aureus = assay: Antimicrobial activity against methicillin-resistant Staphylococcus aureus assessed as inhibition of microbial proliferation; type: functional
P388 = assay: Cytotoxicity against mouse P388 cells; type: functional, cell-based
B16 = assay: Cytotoxicity against mouse B16 cells; type: functional
[1] = Antitumor activity against mouse EAC implanted in ddy-SLC mouse at 2.5 mg/kg, ip qd administered day 1 to 5 starting 24 hrs post tumor implantation; type: functional, Ehrlich
L1210 = assay: Cytotoxicity against mouse L1210 cells; type: functional, cell-based
[2] = Inhibition of gastric ATPase (unknown origin); type: tissue-based, Homo sapiens, Stomach
[3] = target: T1, Gastrin/cholecystokinin type B receptor (Rattus norvegicus, UniProt P30553); assay: Inhibition of CCK-B receptor in rat cerebral cortex; type: tissue-based
T1 sequence (P30553 whole entry): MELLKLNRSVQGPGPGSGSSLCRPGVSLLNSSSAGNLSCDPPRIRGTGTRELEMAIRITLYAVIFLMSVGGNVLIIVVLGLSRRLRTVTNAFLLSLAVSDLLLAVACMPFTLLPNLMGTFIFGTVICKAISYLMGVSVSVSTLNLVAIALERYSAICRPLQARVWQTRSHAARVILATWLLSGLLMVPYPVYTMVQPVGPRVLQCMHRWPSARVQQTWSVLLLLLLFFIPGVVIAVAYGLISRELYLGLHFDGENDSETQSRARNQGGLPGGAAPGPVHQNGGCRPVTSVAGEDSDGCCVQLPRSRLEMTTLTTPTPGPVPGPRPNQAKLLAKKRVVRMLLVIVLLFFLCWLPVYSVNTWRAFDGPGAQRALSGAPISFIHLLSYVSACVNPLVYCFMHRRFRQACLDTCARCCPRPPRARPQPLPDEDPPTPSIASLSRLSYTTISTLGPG

[4] = Toxicity in ip dosed ICR mouse implanted with mouse EAC; type: organism-based; conditions: in vivo

C[C@@H]1C[C@H](C)C(=O)/C=C/[C@@H]2[C@@H](O)[C@H]3OC4=C(C(=O)O[C@@]42C[C@H]3C)C1=O
MIC (Staphylococcus aureus; Staphylococcus aureus, read-out: MIC): 5.2 µg/mL

COC(=O)N[C@@H]1[C@H](C)O[C@@H](O[C@H]2C/C=C(\C)[C@@H]3C=C[C@@H]4[C@@H](O[C@H]5C[C@H](O[C@@H]6CC[C@H](C)[C@@H](O[C@H]7C[C@H](O)[C@H](O[C@@H]8CC[C@H](O)[C@@H](C)O8)[C@@H](C)O7)O6)[C@H](OC(C)=O)[C@@H](C)O5)[C@@H](C)C[C@H](C)[C@H]4[C@]3(C)C(=O)C3=C(O)[C@@]4(CC(C=O)=C[C@H](O)[C@H]4/C=C/2C)OC3)C[C@@]1(C)N
INH (P388): 6.25 µg/mL
INH (B16): 25 µg/mL

C=C1C(=O)[C@]2(C)C(=O)O[C@@]34C[C@H](C)C(C(=O)O)=C[C@@H]3CCC[C@@H](C)C[C@@H](C)[C@H]1OC24
IC50 (P388; Mus musculus, P388): 89 nM
T/C [1]: 145.7%
IC50 (L1210): 216 nM

CC[C@@H]1C[C@]23OC(=O)C(=C2O)[C@@H](O)[C@@H](C)C[C@H](C)CCC[C@]3(C)C=C1C
IC50 [2]: 500 nM

CC1=CC2C/C=C/C=C/CC(O)C/C=C/CC(C)C3C(CSC3C(=O)C(=O)O)C(=O)C3=C(O)C2(CC1C)OC3=O (stereo not given)
IC50 [3]: 3.6 nM

COc1ccc(Cl)c(C)c1C(=O)O[C@@H]1C[C@H](O[C@H]2[C@H](C)O[C@@H](O[C@H]3CCC[C@@H]4[C@@H]3C=C[C@H]3CCCC/C=C/[C@@H]5C=C(C(=O)O)[C@H](C)C[C@]56OC(=O)C(=C6O)OC(=O)[C@@]43C)C(O)[C@@H]2O)O[C@H](C)[C@H]1O (stereo not given in full)
LD50 [4]: 295 mg/kg

C[C@@H]1C[C@H](C)C(=O)/C=C/[C@@H]2[C@@H](O)[C@H]3OC4=C(C(=O)O[C@@]42C[C@H]3C)C1=O (single isomer, unassigned; atropisomer)
MIC (Staphylococcus aureus): 3.5 µg/mL

Reference: ChEMBL document CHEMBL3576770, “Spirotetronate polyketides as leads in drug discovery” (J Nat Prod, 2015)
